The text below walks through data of PubChem BioAssay AID588635 (Johns Hopkins Ion Channel Center, 2011).

As a reminder, the inhibition is the share of the control response that was lost under treatment.

The target in this assay is Potassium voltage-gated channel subfamily KQT member 2 (Rattus norvegicus) (UniProt O88943). Briefly: PubChem AID 588635. The conditions noted are these: KCNQ2-CHO cells, manual whole-cell patch clamp current; at 0.1 µM; active compounds read high. On the technique in general: The patch-clamp technique gives a direct electrical read-out from membranes.
Potassium voltage-gated channel subfamily KQT member 2 (Rattus norvegicus), sequence (O88943 whole entry, looked up): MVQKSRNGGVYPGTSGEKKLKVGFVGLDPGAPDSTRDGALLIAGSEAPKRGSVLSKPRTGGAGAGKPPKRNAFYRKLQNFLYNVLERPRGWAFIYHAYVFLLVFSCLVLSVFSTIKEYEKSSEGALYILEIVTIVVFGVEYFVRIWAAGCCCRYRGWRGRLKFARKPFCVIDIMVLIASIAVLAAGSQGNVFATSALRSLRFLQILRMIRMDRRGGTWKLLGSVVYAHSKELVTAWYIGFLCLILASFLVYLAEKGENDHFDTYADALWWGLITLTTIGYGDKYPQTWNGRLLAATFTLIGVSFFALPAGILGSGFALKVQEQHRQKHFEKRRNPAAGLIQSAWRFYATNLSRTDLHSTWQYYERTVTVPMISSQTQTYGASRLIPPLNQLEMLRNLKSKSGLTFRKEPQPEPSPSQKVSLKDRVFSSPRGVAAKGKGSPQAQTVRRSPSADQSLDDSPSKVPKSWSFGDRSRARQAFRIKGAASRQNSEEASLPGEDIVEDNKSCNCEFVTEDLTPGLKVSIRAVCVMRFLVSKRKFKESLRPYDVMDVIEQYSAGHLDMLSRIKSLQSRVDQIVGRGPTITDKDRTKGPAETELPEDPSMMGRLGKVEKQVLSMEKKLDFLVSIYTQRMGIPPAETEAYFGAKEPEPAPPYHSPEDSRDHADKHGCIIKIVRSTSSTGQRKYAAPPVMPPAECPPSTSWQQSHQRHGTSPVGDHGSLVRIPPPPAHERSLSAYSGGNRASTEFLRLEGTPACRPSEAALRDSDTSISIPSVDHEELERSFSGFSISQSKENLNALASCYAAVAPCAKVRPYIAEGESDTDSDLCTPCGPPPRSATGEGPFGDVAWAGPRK

As for `CC[C@H](C(=O)Nc1ccccc1N1CCCC1)c1ccccc1`, the inhibition is 83.4%.
